Values quoted from earlier work in US20060074057A1, “Use of chenodeoxycholic acid for reducing adipose tissue” (priority 2004, published 2006).

Molecular target: 11-beta-hydroxysteroid dehydrogenase type 1 (11BHSD1) (Homo sapiens, UniProt P28845)
Details: "has been shown"; no data or method given

11-beta-hydroxysteroid dehydrogenase type 1 (11BHSD1), sequence (P28845 whole entry): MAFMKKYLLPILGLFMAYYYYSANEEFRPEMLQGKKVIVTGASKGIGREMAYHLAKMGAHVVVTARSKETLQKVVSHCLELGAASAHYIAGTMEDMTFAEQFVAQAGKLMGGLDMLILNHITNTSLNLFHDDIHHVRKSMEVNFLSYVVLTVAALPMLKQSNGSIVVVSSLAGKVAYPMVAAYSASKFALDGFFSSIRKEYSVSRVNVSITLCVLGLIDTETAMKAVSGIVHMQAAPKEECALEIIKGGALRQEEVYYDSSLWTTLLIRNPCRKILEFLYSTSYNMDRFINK

For `CC(CCC(=O)O)C1CCC2C3C(CC[C@]12C)[C@@]1(C)CC[C@@H](O)C[C@H]1C[C@H]3O` (stereo partly drawn) [Chenodeoxycholic acid, 3-alpha,7-alpha-dihydroxy-5-beta-cholanic acid], the “inhibition of 11BHSD1 (result in words)” value is listed as “selective inhibitor”.
